SMILES strings stand for the structures.

For experiment [1], the system named is patients with rheumatoid arthritis. Description: Treatment of rheumatoid arthritis patients with the individual substances or extracts A-F. Format: in vivo, human. The conditions noted are these: for alleviation/reduction of joint pain / improvement in joint sensitivity: after two weeks; for Result of treatment, scale of 1-10: individual substance, scale from 1 (scarcely any alleviation of symptoms) to 10 (complete elimination of symptoms). The procedure:
All the abovementioned active ingredients or medicinal plant extracts A-F were tested singly in the treatment of rheumatoid arthritis. The following products and daily doses were used for this: A. Omega-3 fatty acids: 8 capsules of Ameu® 500 mg. One capsule of Ameu contains 500 mg of fish body oil (fatty oil from […] comprises 70 mg of eicosapentaenoic acid and 50 mg of docosahexaenoic acid (total 120 mg of omega-3 fatty acids). B. α-Tocopherol (vitamin E): 800 to 1000 I.U. once a day. C. Ascorbic acid (vitamin C): 3 g in three 1000 mg doses. D. Selenium: 300 μg of selenium as sodium selenite 5H2O ([…]® or […]®) once a day. E. Harpagophytum: 2×480 mg of dry extract once a day (extractant: ethanol 60% (V/V) (BIOCUR Arzneimittel GmbH). F. Boswellia serrata: 3×400 mg of dry extract once a day (H 15 Gufic tablets (Gufic Chem, India)). […] A positive rheumatoid factor was not obligatory. All the treated patients had elevated C-reactive protein and frequently raised ferritin as signs of inflammation. Bacterial and parasitic causes, and allergies (including yersinia, staphylococci, streptococci, mycoplasma, Whipple's disease, borreliosis and gluten allergies) were excluded. […] All the patients had discontinued their previous medication (morphine, ibuprofen, cortisol, etc.) at least one week before starting the treatment, or had received no medical therapy over a prolonged period because of toxic side effects of other medicaments. The results of treatment were classified on a scale of from 1 (scarcely any alleviation of symptoms) to 10 (complete elimination of symptoms).

A further experiment relates to rheumatoid arthritis. Particulars: vitamin E alone, 1200 mg/day, without influencing the immune markers; cited from earlier work.
The conditions of experiment [2]: single substance; cited from earlier work.

Turning to `O=C1O[C@H]([C@@H](O)CO)C(O)=C1O` [Ascorbic acid (vitamin C), Ascorbic acid], in experiment [1], the “alleviation/reduction of joint pain” value is given as 2-5%; the “improvement in joint sensitivity” value was 5-10%; the “Result of treatment, scale of 1-10” value is 2.

Take `Cc1c(C)c2c(c(C)c1O)CC[C@@](C)(CCC[C@H](C)CCC[C@H](C)CCCC(C)C)O2` [α-Tocopherol (vitamin E), α-Tocopherol]: in experiment [1], the “alleviation/reduction of joint pain” value is recorded as 5%; the “improvement in joint sensitivity” value turned out to be 10%; the “Result of treatment, scale of 1-10” value worked out at 3.0. In the experiment with rheumatoid arthritis, the pain entry is “alleviation of pain”.

Take `C[C@]1(OC(=O)/C=C/c2ccccc2)C[C@@H](O)[C@]2(O)C=CO[C@@H](O[C@@H]3O[C@H](CO)[C@@H](O)[C@H](O)[C@H]3O)[C@@H]21` [Harpagoside]: in experiment [2], the “effectiveness compared with total root extract” value was “far less effective than the total root extract”.
